Results from EPA's ToxRefDB 2.

Key:
[1] = test system: dog; settings: Subchronic oral toxicity in nonrodent, beagle, Capsule, dose end: 90 day, group: systemic, systemic / clinical chemistry / alkaline phosphatase (alp/alk) / alkaline phosphatase (alp/alk) + systemic / organ weight / liver / relative…
[2] = test system: dog; settings: Chronic toxicity, beagle, Oral, Capsule, dose end: 52 week, group: systemic
[3] = test system: rabbit; settings: Prenatal developmental toxicity study, new zealand white, Oral, Gavage/Intubation, dose end: 19 GD
[4] = test system: rat; settings: Prenatal developmental toxicity study, sprague dawley, Oral, Gavage/Intubation, dose end: 15 GD
[5] = test system: rat; settings: Combined chronic toxicity/carcinogenicity, sprague dawley, Oral, Feed, dose end: 104 week, group: systemic
[6] = test system: rat; settings: Chronic toxicity, sprague dawley, Oral, Feed, dose end: 104 week, group: systemic
[7] = test system: rat; settings: Prenatal developmental toxicity study, sprague dawley, Oral, Gavage/Intubation, dose end: 15 GD; remark: listed apart in the source
[8] = test system: mouse; settings: Carcinogenicity; cd1; Oral; Feed; dose end: 104 week; group: systemic; systemic / organ weight / liver / relative to body weight + systemic / pathology gross / liver / discolored + systemic / pathology …
[9] = test system: rat; settings: Subchronic oral toxicity in rodents, sprague dawley, Feed, dose end: 90 day, group: systemic, systemic / organ weight / liver / absolute + systemic / organ weight / liver / relative to body weight + systemic / pathology microscopic / …
[10] = test system: mouse; settings: Carcinogenicity, cd1, Oral, Feed, dose end: 104 week, group: systemic
[11] = test system: rat; settings: Multigenerational reproductive toxicity study, sprague dawley, Oral, Feed, dose end: 2 generation
[12] = systemic / clinical chemistry / glucose / glucose
[13] = group: developmental, developmental / developmental malformation / bone / absent + developmental / developmental malformation / bone / fused + developmental / …
[14] = group: maternal, systemic / in life observation / food consumption / food consumption + systemic / pathology microscopic / liver / apoptosis + systemic / …
[15] = group: developmental, developmental / developmental malformation / bone / delayed ossification + developmental / developmental malformation / bone / incomplete …
[16] = group: maternal, systemic / in life observation / body weight / body weight gain + systemic / in life observation / clinical signs / urogenital staining + …
[17] = systemic / pathology microscopic / liver / dilatation + systemic / pathology microscopic / liver / inflammation + systemic / pathology …
[18] = systemic / pathology microscopic / testes / atrophy
[19] = systemic / pathology microscopic / testes / atrophy + systemic / organ weight / epididymis / relative to body weight + systemic / organ …
[20] = group: developmental, developmental / developmental malformation / bone / incomplete ossification
[21] = group: maternal, systemic / in life observation / body weight / body weight + systemic / in life observation / clinical signs / ataxia + systemic / in life …
[22] = systemic / pathology microscopic / liver / pigmentation + systemic / pathology microscopic / liver / vacuolization
[23] = systemic / pathology microscopic / liver / pigmentation + systemic / pathology microscopic / liver / vacuolization + systemic / pathology …
[24] = group: offspring, systemic / in life observation / body weight / offspring (pup) weight gain + developmental / developmental landmark / eye opening / eye …
[25] = group: parental, systemic / pathology microscopic / liver / fatty change
[26] = group: parental, systemic / pathology microscopic / liver / fatty change + systemic / in life observation / body weight / body weight + systemic / in life …
[27] = group: reproductive, reproductive / offspring survival early / litter size / litter size

O=[N+]([O-])c1cc(C(F)(F)F)c(Cl)c([N+](=O)[O-])c1Nc1ncc(C(F)(F)F)cc1Cl [Fluazinam]
LEL [1]: 100 mg/kg/day | LOAEL [1]: 100 mg/kg/day | NEL [1]: 10 mg/kg/day | NOAEL [1]: 10 mg/kg/day | LEL [2, 12]: 1 mg/kg/day | NEL [2, 12]: < 1 mg/kg/day | LOAEL ([2]; systemic / in life observation / clinical signs / nasal dryness + systemic / pathology microscopic / stomach / hyperplasia): 10 mg/kg/day | NOAEL ([2]; systemic / in life observation / clinical signs / nasal dryness + systemic / pathology microscopic / stomach / hyperplasia + systemic / …): 1 mg/kg/day | LEL [3, 13]: 12 mg/kg/day | LOAEL [3, 13]: 12 mg/kg/day | NEL [3, 13]: 7 mg/kg/day | NOAEL [3, 13]: 7 mg/kg/day | LEL ([3]; group: maternal, reproductive / reproductive performance / aborted / aborted): 4 mg/kg/day | LOAEL [3, 14]: 7 mg/kg/day | NEL [3, 14]: 2 mg/kg/day | NOAEL [3, 14]: 4 mg/kg/day | LOAEL [4, 15]: 250 mg/kg/day | NEL [4, 15]: 10 mg/kg/day | NOAEL [4, 15]: 50 mg/kg/day | LEL ([4]; group: developmental, developmental / developmental malformation / bone / full supernumerary): 50 mg/kg/day | LEL [4, 16]: 250 mg/kg/day | LOAEL [4, 16]: 250 mg/kg/day | NEL [4, 16]: 50 mg/kg/day | NOAEL [4, 16]: 50 mg/kg/day | LOAEL [5, 17]: 3.8 mg/kg/day | NOAEL [5, 17]: 0.38 mg/kg/day | LEL [5, 18]: 0.04 mg/kg/day | NEL [5, 18]: < 0.04 mg/kg/day | LOAEL [6, 18]: 3.9 mg/kg/day | LEL [6, 19]: 3.9 mg/kg/day | NEL [6, 19]: 1.9 mg/kg/day | NOAEL [6, 19]: 1.9 mg/kg/day | LEL [7, 20]: 100 mg/kg/day | LOAEL [7, 20]: > 1000 mg/kg/day | NEL [7, 20]: 10 mg/kg/day | NOAEL [7, 20]: ≥ 1000 mg/kg/day | LEL [7, 21]: 1000 mg/kg/day | LOAEL [7, 21]: > 1000 mg/kg/day | NEL [7, 21]: 100 mg/kg/day | NOAEL [7, 21]: ≥ 1000 mg/kg/day | LEL [8]: 126 mg/kg/day | LOAEL [8]: 126 mg/kg/day | NEL [8]: < 126 mg/kg/day | NOAEL [8]: < 126 mg/kg/day | LEL [9]: 38 mg/kg/day | LOAEL [9]: 38 mg/kg/day | NEL [9]: 3.8 mg/kg/day | NOAEL [9]: 3.8 mg/kg/day | LEL [10, 22]: 10.7 mg/kg/day | LOAEL [10, 22]: 10.7 mg/kg/day | NEL [10, 23]: 1.12 mg/kg/day | NOAEL [10, 23]: 1.12 mg/kg/day | LOAEL ([11]; group: offspring, systemic / in life observation / body weight / offspring (pup) weight gain): 47.3 mg/kg/day | LEL [11, 24]: 47.3 mg/kg/day | NEL [11, 24]: 9.7 mg/kg/day | NOAEL [11, 24]: 9.7 mg/kg/day | LEL [11, 25]: 9.7 mg/kg/day | LOAEL [11, 25]: 9.7 mg/kg/day | NEL [11, 26]: 1.9 mg/kg/day | NOAEL [11, 26]: 1.9 mg/kg/day | LEL [11, 27]: 47.3 mg/kg/day | LOAEL [11, 27]: 47.3 mg/kg/day | NEL [11, 27]: 9.7 mg/kg/day | NOAEL [11, 27]: 9.7 mg/kg/day
